The values below come from publication PMC9946977, “Identification of linderalactone as a natural inhibitor of SHP2 to ameliorate CCl4-induced liver fibrosis” (Frontiers in Pharmacology, 2023).

Molecules are shown by their SMILES.

The test has as its target T1, full-length SHP2 (Homo sapiens, UniProt Q06124).
T1 construct: used for the expression and purification of the full-length SHP2; made in house; host or cells: E. coli (similar protocol as for SHP2-PTP)
T1 sequence (Q06124 1-593): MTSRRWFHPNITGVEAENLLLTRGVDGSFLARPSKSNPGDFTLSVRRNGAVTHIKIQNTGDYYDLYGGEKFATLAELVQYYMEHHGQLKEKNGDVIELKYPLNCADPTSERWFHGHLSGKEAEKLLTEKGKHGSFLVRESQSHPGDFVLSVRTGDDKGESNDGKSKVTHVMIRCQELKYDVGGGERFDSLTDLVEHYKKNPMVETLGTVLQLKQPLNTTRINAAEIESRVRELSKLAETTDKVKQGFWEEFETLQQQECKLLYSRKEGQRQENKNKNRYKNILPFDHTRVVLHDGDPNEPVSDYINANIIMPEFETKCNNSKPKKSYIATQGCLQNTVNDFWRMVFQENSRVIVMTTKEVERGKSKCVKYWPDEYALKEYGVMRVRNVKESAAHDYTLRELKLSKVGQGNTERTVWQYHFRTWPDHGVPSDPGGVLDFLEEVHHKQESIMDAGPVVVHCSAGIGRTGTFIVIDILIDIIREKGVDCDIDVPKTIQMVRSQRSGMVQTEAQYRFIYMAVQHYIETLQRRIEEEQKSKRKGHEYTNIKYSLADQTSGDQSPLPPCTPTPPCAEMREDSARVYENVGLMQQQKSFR
The test can be described thus: full-length SHP2 inhibition assay (DiFMUP, pIRS-1 activated). The format is biochemical. The note with it: activating peptide p-IRS-1 supplemented; read-out: IC50 on full length SHP2 (SHP2-FL). How it is done: Cell pellets were collected and suspended in a buffer of 50 mM Tris-HCl (Ph = 8.5), 150 mM NaCl supplemented with 10% glycerol, and lysed by homogeniser (JN-BIO, China). After centrifugation, the collected supernatants were diluted with a Tris-HCl buffer (pH = 8.5) containing 50 mM imidazole and 150 mM NaCl and then loaded onto a Ni-NTA column (#88221, Thermo). The bound SHP2 protein was eluted with a buffer containing 150 and 300 mM imidazole. The pooled protein was loaded onto a HiTrap Q column after dilution in 25 mM Tris-HCl buffer. After elution using a linear gradient of NaCl (0–0.5 M), peak fractions containing the SHP2 protein were concentrated and applied to a gel filtration Superdex 200 column (GE Healthcare). Purified SHP2-PTP proteins were flash-frozen and stored. Similar expression and purification protocols were used for the expression and purification of the full-length SHP2 and SHP2-PTP ^K366A/Q510A double mutants.
A surrogate phosphatase substrate, 6,8-difluoro-4-methylumbelliferyl phosphate (DiFMUP, Thermo Fisher, #D22065), was used to monitor the catalytic activity of SHP2 in a prompt fluorescence assay format. […] The signals were read on a plate reader (SpectraMax iD5, Molecular Devices). […] The inhibitor dose-response curves were evaluated using a normalised IC50 regression curve fitting with control-based normalisation. […]

By IC50 is commonly meant the concentration that gives 50% inhibition. On to `C/C1=C\CCC2=C[C@@H](OC2=O)c2c(C)coc2C1` [LIN, linderalactone], for which the IC50 amounted to 1.98 µM.
